Results from US4162324A, “Antibiotics 890A1 and 890A3” (Merck & Co., Inc., priority 1977, dated 1979).

How the values were obtained:
[1] = system: Streptococcus faecalis MB-753; experiment: In vitro antibacterial spectrum profile, zone of inhibition; assay type: cell-based; details: Enterococcus faecalis, MB753; 33 μg/ml; read-out: Inhib. Zone Diam.
[2] = system: Pseudomonas stutzeri ATCC 11607; experiment: as above; assay type: cell-based; details: Stutzerimonas stutzeri, ATCC11607; 33 μg/ml; read-out: Inhib. Zone Diam.
[3] = system: Brucella bronchiseptica ATCC 4617; experiment: microbe, parasite or virus in culture; assay type: cell-based; details: Bordetella bronchiseptica, ATCC4617, read-out: Inhib. Zone Diam.
[4] = system: Klebsiella pneumoniae MB-1264; experiment: In vitro antibacterial spectrum profile, zone of inhibition; assay type: cell-based; details: MB1264, read-out: Inhib. Zone Diam.
[5] = system: Proteus mirabilis MB-3126; experiment: as above; assay type: cell-based; details: MB3126, 33 μg/ml, read-out: Inhib. Zone Diam.
[6] = system: Staphlococcus aureus ATCC 6538 P; experiment: as above; assay type: cell-based; details: 33 μg/ml; read-out: Inhib. Zone Diam.
Escherichia coli MB-1418 = experiment: as above; assay type: cell-based; details: MB1418, read-out: Inhib. Zone Diam.
Proteus vulgaris MB-1012 = experiment: as above; assay type: cell-based; details: MB1012, 33 μg/ml, read-out: Inhib. Zone Diam.
Solubility in water = assay type: physicochemical; details: sodium salt
[7] = system: Serratia marcescens ATCC 990; experiment: In vitro antibacterial spectrum profile, zone of inhibition; assay type: cell-based; details: ATCC990, 33 μg/ml, read-out: Inhib. Zone Diam.
[8] = system: Salmonella schottmuellari MB-2837; experiment: In vivo protection of intraperitoneally infected mice; design: species or system Female white Swiss mice; details: ip; at infection and 6 hours later; calculated on the projected purity of 890A1 at 5500 units/mg
Description: (§1) In determining the in vivo activity, antibiotic 890A1 is dissolved in and diluted with 0.15M NaCl, 0.01M sodium phosphate, pH 7.0, to provide five fourfold concentrations of drug for testing. Female white Swiss mice, averaging about 21 g. in weight, were infected intraperitoneally with the test organism suspended in broth. The numbers of organisms injected were determined by standard plate-count techniques. At the time of infection and again 6 hours later, certain of the mice were treated intraperitoneally with the antibiotic. Five mice were used for each concentration of drug tested. An additional two mice, not infected, were treated with the antibiotic to determine whether the amount of agent injected was toxic. Controls of five mice for each of several dilutions of the infecting culture were included in each test in order to calculate the numbers of organisms that were lethal to 50% of the infected, untreated mice (LD50). This calculation was made using survival data of the seventh day after infection, at which time the amount of drug that should protect 50% of the infected mice (ED50) also was calculated.
All animals receiving this challenge and not treated with antibiotic died within 48 hours of the infection.

Electrophoresis = assay type: physicochemical; details: neutral pH
[9] = system: Corynebacterium pseudoidph. ATCC 9742; experiment: In vitro antibacterial spectrum profile, zone of inhibition; assay type: cell-based; details: ATCC9742, 33 μg/ml, read-out: Inhib. Zone Diam.
Description: (§2) The test to determine the antibiotic spectrum profile is carried out by application of a 0.015 ml. droplet on the surface of a 100×15 mm. petri plate containing 5 ml. of seeded nutrient agar and 0.2% yeast extract. The antibiotic 890A1 is tested at a level of 33 μg/ml. and the antibiotic 890A3 is tested at a level of 182 μg/ml.

Bacillus sp. MB-633 = experiment: as above; assay type: cell-based; details: SP.MB633, 33 μg/ml, read-out: Inhib. Zone Diam.
Description: as §2

[10] = system: Alcaligenes faecalis ATCC 213; experiment: as above; assay type: cell-based; details: ATCC213, 33 μg/ml, read-out: Inhib. Zone Diam.
Description: as §2

[11] = system: Proteus vulgaris ATCC 21100; experiment: as above; assay type: cell-based; details: ATCC21100, 33 μg/ml, read-out: Inhib. Zone Diam.
Description: as §2

[12] = system: Aerobacter aerogenes MB-835; experiment: as above; assay type: cell-based; details: Klebsiella aerogenes, MB835; 33 μg/ml; read-out: Inhib. Zone Diam.
[13] = system: Xanthomonas vesicatoria MB-815; experiment: as above; assay type: cell-based; details: MB815, 33 μg/ml, read-out: Inhib. Zone Diam.
[14] = system: Vibrio percolans ATCC 8461 + 2 × 10^5 units/ml penicillinase; experiment: In vitro antibacterial spectrum profile, zone of inhibition, with penicillinase; assay type: cell-based; details: Comamonas terrigena, ATCC8461, 33 μg/ml, read-out: Inhib. Zone Diam.
Sarcina lutea ATCC 9341 = experiment: In vitro antibacterial spectrum profile, zone of inhibition; assay type: cell-based; details: Micrococcus luteus, ATCC9341; 33 μg/ml; read-out: Inhib. Zone Diam.
[15] = system: Streptococcus faecium MB-2820; experiment: as above; assay type: cell-based; details: Enterococcus faecium, MB2820; 33 μg/ml; read-out: Inhib. Zone Diam.
[16] = system: Salmonella gallinarum MB-1287; experiment: as above; assay type: cell-based; details: Salmonella enterica, 33 μg/ml, read-out: Inhib. Zone Diam.
[17] = system: Escherichia coli ATCC 9637; experiment: In vitro antibacterial spectrum profile, zone of inhibition, synthetic medium; assay type: cell-based; details: ATCC9637, read-out: Inhib. Zone Diam.
[18] = system: Vibrio percolans resistant to ceph. C MB-2566; experiment: In vitro antibacterial spectrum profile, zone of inhibition; assay type: cell-based; details: Comamonas terrigena, read-out: Inhib. Zone Diam.
[19] = system: Pseudomonas aeruginosa MB-979; experiment: as above; assay type: cell-based; details: MB979, 33 μg/ml, read-out: Inhib. Zone Diam.
[20] = system: Proteus vulgaris (episome) MB-2112; experiment: as above; assay type: cell-based; details: 33 μg/ml, read-out: Inhib. Zone Diam.
[21] = system: Erwinia atroseptica ATCC 4466; experiment: as above; assay type: cell-based; details: Pectobacterium atrosepticum, ATCC4466; 33 μg/ml; read-out: Inhib. Zone Diam.
[22] = system: Vibrio percolans ATCC 8461; experiment: Bioassay, agar plate disc-diffusion method
[23] = system: Streptococcus agalactiae MB-2875; experiment: In vitro antibacterial spectrum profile, zone of inhibition; assay type: cell-based; details: MB2875, read-out: Inhib. Zone Diam.
[24] = system: Staphylococcus aureus MB-698; experiment: as above; assay type: cell-based; details: MB698, 33 μg/ml, read-out: Inhib. Zone Diam.
[25] = system: Vibrio percolans ATCC 8461; experiment: as above; assay type: cell-based; details: Comamonas terrigena, ATCC8461, read-out: Inhib. Zone Diam.
[26] = system: Bacillus subtilis ATCC 6633; experiment: as above; assay type: cell-based; details: ATCC6633, 33 μg/ml, read-out: Inhib. Zone Diam.
[27] = system: gram-negative and gram-positive organisms; experiment: In vivo activity; design: species or system Female white Swiss mice; details: mouse
Description: as §1

[28] = system: Pseudomonas aeruginosa MB-2824; experiment: In vitro antibacterial spectrum profile, zone of inhibition; assay type: cell-based; details: MB2824, 33 μg/ml, read-out: Inhib. Zone Diam.
[29] = system: Vibrio percolans (ATCC 8461); experiment: Assay procedure for determining "890 Assay Units" (disc-plate assay, cephaloridine standard); assay type: cell-based
Description: The conventional disc-plate assay procedure is employed and the discs are 1/2 inch in diameter. The routinely poured 10 ml./plate inoculated with Vibrio percolans (ATCC 8461) is used and the standard is cephaloridine. Four concentrations of cephaloridine constitute the standard -- 3.12, 6.25. 12.5 and 25 mcg per ml. with the 12.5 mcg per ml. as a reference solution. The zone diameters on a 5 ml. plate for the standard are as follows:
A unit is defined as the amount of antibiotic-producing a 25 mm. zone of inhibition on a 5 ml. plate. Therefore, in this assay a concentration of 12.5 mcg per ml. of cephaloridine is considered equivalent to 1 unit of 890A. Since the slope of the line for cephaloridine is 4.0 calculations of the potency of a sample are made using a slope of 4.0.

[30] = 1 unit/ml. = the concentration which produces a 25 mm zone of inhibition

With `CC(=O)NCCSC1=C(C(=O)O)N2C(=O)C(C(C)O)C2C1` (centres unmarked) [Antibiotic 890A1] the zone of inhibition at 33 µg/mL [1] was 17 mm, the zone of inhibition at 33 µg/mL [2] was 10 mm and the zone of inhibition at 33 µg/mL [3] was 22 mm. The zone of inhibition at 33 µg/mL [4] was 27 mm, the zone of inhibition at 33 µg/mL [5] was 23 mm and the zone of inhibition at 33 µg/mL [6] was 35 mm. For the same compound, the zone of inhibition at 33 µg/mL (Escherichia coli MB-1418) was 27 mm, the zone of inhibition at 33 µg/mL (Proteus vulgaris MB-1012) was 21 mm and the solubility in water (Solubility in water) was “very soluble in water”. For the same compound, the zone of inhibition at 33 µg/mL [7] was 26 mm, the “ED50 × 2 doses” value [8] was 3 µg and the movement on electrophoresis (Electrophoresis) was “acidic substance which moves toward the positive pole on electrophoresis at neutral pH”. It also gave a zone of inhibition at 33 µg/mL [9] of 34 mm, a zone of inhibition at 33 µg/mL (Bacillus sp. MB-633) of 40 mm and a zone of inhibition at 33 µg/mL [10] of 27 mm. It also gave a zone of inhibition at 33 µg/mL [11] of 34 mm, a zone of inhibition at 33 µg/mL [12] of 26 mm and a zone of inhibition at 33 µg/mL [13] of 26 mm. It also gave a zone of inhibition at 33 µg/mL [14] of 10 mm, a zone of inhibition at 33 µg/mL (Sarcina lutea ATCC 9341) of 38 mm and a zone of inhibition at 33 µg/mL [15] of 18 mm. For the same compound, the zone of inhibition at 33 µg/mL [16] was 33 mm, the zone of inhibition at 33 µg/mL [17] was 27 mm and the zone of inhibition at 33 µg/mL [18] was 15 mm. It also gave a zone of inhibition at 33 µg/mL [19] of 0 mm, a zone of inhibition at 33 µg/mL [20] of 32 mm and a zone of inhibition at 33 µg/mL [21] of 20 mm. The “activity of the solution tested in vivo” value [22, 30] was 908 Units/ml, the “potency of 890A1 used in the in vivo test” value [22, 30] was 5.5 units per μg and the antibiotic potency ([22]; 890A1 value defined as standard) was 250 units per HAEA300 unit. The zone of inhibition at 33 µg/mL [23] was 36 mm, the zone of inhibition at 33 µg/mL [24] was 28 mm and the zone of inhibition at 33 µg/mL [25] was 34 mm. For the same compound, the zone of inhibition at 33 µg/mL [26] was 38 mm, the in vivo activity [27] was “exhibits in vivo activity against gram-negative and gram-positive organisms” and the zone of inhibition at 33 µg/mL [28] was 0 mm.

In the case of `O=C(Cc1cccs1)N[C@@H]1C(=O)N2C(C(=O)[O-])=C(C[n+]3ccccc3)CS[C@H]12` [cephaloridine], the “slope of the line” value [29] is reported as 4.0, the zone of inhibition at 3.12 µg/mL ([29]; Comamonas terrigena, ATCC8461, 3.12 mcg/ml, 5 ml. plate, read-out: Zone Diameter) is reported as 16.8 mm and the zone of inhibition at 6.25 µg/mL ([29]; Comamonas terrigena, ATCC8461, 6.25 mcg/ml, 5 ml. plate, read-out: Zone Diameter) is reported as 22.3 mm. It also gave a zone of inhibition at 12.5 µg/mL ([29]; Comamonas terrigena, ATCC8461, 12.5 mcg/ml, 5 ml. plate, read-out: Zone Diameter) of 25 mm and a zone of inhibition at 25 µg/mL ([29]; Comamonas terrigena, ATCC8461, 25 mcg/ml, 5 ml. plate, read-out: Zone Diameter) of 29.6 mm.
